Measured values: ChEMBL document CHEMBL5335848, “Penicilloneines A and B, Quinolone-Citrinin Hybrids from a Starfish-Derived Penicillium sp” (2024)
In brackets after ≈: the same amount, converted by molar mass. Activity calls are given as the source filed them. The rule behind the calls is not given here.

Key:
[1] = tested on: Colletotrichum gloeosporioides; assay: Antifungal activity against Colletotrichum gloeosporioides assessed as inhibition of mycelial growth incubated for 3 days by cross-bonded method; type: functional; conditions: for LC50: 72 h, time 3 day; for Activity: time 3.0 day
[2] = tested on: Colletotrichum gloeosporioides; assay: Antifungal activity against Colletotrichum gloeosporioides assessed as induction of morphological changes by measuring increase in low density particles in cytoplasm at 5 mg/L incubated for 24 hrs by TEM analysis; type: functional, organism-based
[3] = tested on: Colletotrichum gloeosporioides; assay: Antifungal activity against Colletotrichum gloeosporioides assessed as increase in lipase encoding gene expression by RNA-seq analysis; type: functional, organism-based
[4] = tested on: Colletotrichum gloeosporioides; assay: Antifungal activity against Colletotrichum gloeosporioides assessed as increase in acetylcholinesterase encoding gene expression by RNA-seq analysis; type: functional, organism-based
[5] = tested on: Colletotrichum gloeosporioides; assay: Antifungal activity against Colletotrichum gloeosporioides assessed as fold increase in beta-galactosidase encoding gene expression by qRT-PCR analysis relative to control; type: functional
[6] = tested on: Colletotrichum gloeosporioides; assay: Antifungal activity against Colletotrichum gloeosporioides assessed as fold decrease in phosphoketolase encoding gene expression by qRT-PCR analysis relative to control; type: functional
[7] = tested on: Colletotrichum gloeosporioides; assay: Antifungal activity against Colletotrichum gloeosporioides assessed as induction of morphological changes by measuring appearance of distorted hyphae at 5 mg/L measured after 48 hrs by SEM analysis; type: functional, organism-based
[8] = tested on: Colletotrichum gloeosporioides; assay: Antifungal activity against Colletotrichum gloeosporioides assessed as induction of morphological changes by measuring appearance of twisted hyphae at 5 mg/L measured after 48 hrs by SEM analysis; type: functional, organism-based
[9] = tested on: Colletotrichum gloeosporioides; assay: Antifungal activity against Colletotrichum gloeosporioides assessed as fold increase in leucine aminopeptidase encoding gene expression by qRT-PCR analysis relative to control; type: functional
[10] = tested on: Colletotrichum gloeosporioides; assay: Antifungal activity against Colletotrichum gloeosporioides assessed as induction of morphological changes by measuring reduction in high density particles in cytoplasm at 5 mg/L incubated for 24 hrs by TEM analysis; type: functional, organism-based
[11] = tested on: Colletotrichum gloeosporioides; assay: Antifungal activity against Colletotrichum gloeosporioides assessed as decrease in 3-carboxymuconate cyclase encoding gene expression by RNA-seq analysis; type: functional, organism-based
[12] = tested on: Colletotrichum gloeosporioides; assay: Antifungal activity against Colletotrichum gloeosporioides assessed as fold increase in lipase encoding gene expression by qRT-PCR analysis relative to control; type: functional
[13] = tested on: Colletotrichum gloeosporioides; assay: Antifungal activity against Colletotrichum gloeosporioides assessed as increase in leucine aminopeptidase encoding gene expression by RNA-seq analysis; type: functional, organism-based
[14] = tested on: Colletotrichum gloeosporioides; assay: Antifungal activity against Colletotrichum gloeosporioides assessed as decrease in phosphoketolase encoding gene expression by RNA-seq analysis; type: functional, organism-based
[15] = tested on: Colletotrichum gloeosporioides; assay: Antifungal activity against Colletotrichum gloeosporioides assessed as induction of morphological changes by measuring appearance of vacuolizations at 5 mg/L incubated for 24 hrs by TEM analysis; type: functional, organism-based
[16] = tested on: Colletotrichum gloeosporioides; assay: Antifungal activity against Colletotrichum gloeosporioides assessed as decrease in oxalate decarboxylase encoding gene expression by RNA-seq analysis; type: functional, organism-based
[17] = tested on: Colletotrichum gloeosporioides; assay: Antifungal activity against Colletotrichum gloeosporioides assessed as induction of morphological changes by measuring aggregation of particles into clusters in cytoplasm at 5 mg/L incubated for 24 hrs by TEM analysis; type: functional, organism-based
[18] = tested on: Colletotrichum gloeosporioides; assay: Antifungal activity against Colletotrichum gloeosporioides assessed as induction of morphological changes by measuring degradation of plasma membrane at 5 mg/L incubated for 24 hrs by TEM analysis; type: functional, organism-based
[19] = tested on: Colletotrichum gloeosporioides; assay: Antifungal activity against Colletotrichum gloeosporioides assessed as induction of morphological changes by measuring appearance of disorganized organelles at 5 mg/L incubated for 24 hrs by TEM analysis; type: functional, organism-based
[20] = tested on: Colletotrichum gloeosporioides; assay: Antifungal activity against Colletotrichum gloeosporioides assessed as fold decrease in oxalate decarboxylase encoding gene expression by qRT-PCR analysis relative to control; type: functional
[21] = tested on: Colletotrichum gloeosporioides; assay: Antifungal activity against Colletotrichum gloeosporioides assessed as fold decrease in pyruvate decarboxylase encoding gene expression by qRT-PCR analysis relative to control; type: functional
[22] = tested on: Colletotrichum gloeosporioides; assay: Antifungal activity against Colletotrichum gloeosporioides assessed as increase in beta-galactosidase encoding gene expression by RNA-seq analysis; type: functional, organism-based
[23] = tested on: Colletotrichum gloeosporioides; assay: Antifungal activity against Colletotrichum gloeosporioides assessed as increase in putative hydrolase encoding gene expression by RNA-seq analysis; type: functional, organism-based
[24] = tested on: Colletotrichum gloeosporioides; assay: Antifungal activity against Colletotrichum gloeosporioides assessed as induction of morphological changes by measuring separation of plasma membrane from cell wall at 5 mg/L incubated for 24 hrs by TEM analysis; type: functional, organism-based
[25] = tested on: Colletotrichum gloeosporioides; assay: Antifungal activity against Colletotrichum gloeosporioides assessed as fold decrease in 3-carboxymuconate cyclase encoding gene expression by qRT-PCR analysis relative to control; type: functional
[26] = tested on: Colletotrichum gloeosporioides; assay: Antifungal activity against Colletotrichum gloeosporioides assessed as decrease in pyruvate decarboxylase encoding gene expression by RNA-seq analysis; type: functional, organism-based
[27] = tested on: Colletotrichum gloeosporioides; assay: Antifungal activity against Colletotrichum gloeosporioides assessed as increase in glycosyl hydrolase encoding gene expression by RNA-seq analysis; type: functional, organism-based
[28] = tested on: Colletotrichum gloeosporioides; assay: Antifungal activity against Colletotrichum gloeosporioides assessed as fold increase in putative hydrolase encoding gene expression by qRT-PCR analysis relative to control; type: functional
[29] = tested on: Colletotrichum gloeosporioides; assay: Antifungal activity against Colletotrichum gloeosporioides assessed as induction of morphological changes by measuring appearance of clustered/bundled hyphae at 5 mg/L measured after 48 hrs by SEM analysis; type: functional, organism-based
[30] = tested on: Colletotrichum gloeosporioides; assay: Antifungal activity against Colletotrichum gloeosporioides assessed as induction of morphological changes by measuring disappearance of organelles at 5 mg/L incubated for 24 hrs by TEM analysis; type: functional, organism-based
[31] = tested on: Colletotrichum gloeosporioides; assay: Antifungal activity against Colletotrichum gloeosporioides assessed as fold increase in glycosyl hydrolase encoding gene expression by qRT-PCR analysis relative to control; type: functional
[32] = tested on: Colletotrichum gloeosporioides; assay: Antifungal activity against Colletotrichum gloeosporioides assessed as induction of morphological changes by measuring appearance of evident craters on surface at 5 mg/L measured after 48 hrs by SEM analysis; type: functional, organism-based
[33] = tested on: Colletotrichum gloeosporioides; assay: Antifungal activity against Colletotrichum gloeosporioides assessed as induction of morphological changes by measuring appearance of cavities at 5 mg/L incubated for 24 hrs by TEM analysis; type: functional, organism-based
[34] = tested on: Colletotrichum gloeosporioides; assay: Antifungal activity against Colletotrichum gloeosporioides assessed as fold increase in acetylcholinesterase encoding gene expression by qRT-PCR analysis relative to control; type: functional
[35] = tested on: Colletotrichum gloeosporioides; assay: Antifungal activity against Colletotrichum gloeosporioides assessed as disruption of cell wall at 5 mg/L incubated for 24 hrs by TEM analysis; type: functional, organism-based

For `CC1=C2C(=CO[C@H](C)[C@H]2C)C(O)=C(Cc2c(O)c3ccccc3n(C)c2=O)C1=O`, the LC50 [1] was 0.02 µg/mL (≈ 0.0508 µM), the Activity [2] was “Active” and the Activity [3] was “Active”. For the same compound, the Activity [4] was “Active”, the “fold change (FC)” value [5] was 4.7 and the “fold change (FC)” value [6] was 1.47. The Activity [7] was “Active”, the Activity [8] was “Active” and the “fold change (FC)” value [9] was 3.5. For the same compound, the Activity [10] was “Active”, the Activity [11] was “Active” and the “fold change (FC)” value [12] was 8.9. The Activity [13] was “Active”, the Activity [14] was “Active” and the Activity [15] was “Active”. The Activity [16] was “Active”, the Activity [17] was “Active” and the Activity [18] was “Active”. The Activity [19] was “Active”, the “fold change (FC)” value [20] was 23.8 and the “fold change (FC)” value [21] was 215. The Activity [22] was “Active”, the Activity [23] was “Active” and the Activity [24] was “Active”. The “fold change (FC)” value [25] was 386, the Activity [26] was “Active” and the Activity [27] was “Active”. For the same compound, the “fold change (FC)” value [28] was 14, the Activity [29] was “Active” and the Activity [30] was “Active”. The “fold change (FC)” value [31] was 1.7, the Activity [32] was “Active” and the Activity [33] was “Active”. For the same compound, the “fold change (FC)” value [34] was 6.
With `Cn1c(=O)cc(O)c2ccccc21` the Activity [1] was “Active”.
With `CC1=C2C(=CO[C@H](C)[C@H]2C)C(O)=C(C(=O)O)C1=O` the Activity [1] was “Active”.
`Cc1c(O)c(C(=O)O)c(O)c2c1[C@H](C)[C@@H](C)OC2=O` was tested, and the Activity [1] was “Active”.
In the case of Mancozeb, the Activity [1] is reported as “Active”, the Activity [35] is reported as “Active” and the Activity [15] is reported as “Active”.
`Cc1c(O)c(Cc2c(O)c3ccccc3n(C)c2=O)c(O)c2c1[C@H](C)[C@@H](C)OC2=O` gave an LC50 [1] of 1.51 µg/mL (≈ 3.69 µM).
